Assay: Model experiments with 99Tc complex kept at pH 1
Type: physicochemical
Conditions: complex with 99Tc; kept at pH 1 for days

For `[O]=[Tc]12(=[O])(=[O])[N]3CC[N]1CC[N]2CC3` [Compound 1, [TcO3(tacn)]^+], the “hydrolysis at pH 1” value was “without significant hydrolysis”.

Reference: patent publication US8961924B2, “Metal complexes” (University of Zurich, priority 2008, dated 2015)
